Reference: patent publication US20240285700A1, “COMBINATION OF AN ONCOLYTIC VIRUS, AN ANTI-PD-1 INHIBITOR AND AN ACTIVATOR OF THE INNATE IMMUNE SYSTEM FOR USE IN THE TREATMENT OF PROSTATE CANCER” (priority 2021, published 2024)
“Also recorded” adds a separate entry of the source. Where two headings read alike, the source gives them in different places.

Experiments:
[1] = system: lethal bacterial peritonitis; conditions: mice, cited from earlier work
sarcoma SA-1 = sarcoma SA-1 in syngeneic mice, glucan treatment; assay type: in vivo, A strain mice
Excerpt: To decide whether the ß(1,3) glucan regression was peculiar to the Meth A tumor, we also performed experiments with sarcoma SA-1, syngeneic in A strain mice.

macrophages = conditions: more than forty polysaccharides tested; cited from earlier work
Meth A sarcoma = Meth A sarcoma implanted in the skin of mice, glucan treatment; assay type: in vivo, hybrid CB6 F1 (Balb/c×C 57131/6) mice
Description: Meth A sarcoma was inoculated in the skin of hybrid CB6 F1 (Balb/c×C 57131/6) and grew progressive in immunized animals. […] When 5 mg of pure water-soluble aminated ß(1,3) glucan was injected intravenously or intraperitoneally on day 7, there was an almost immediate visible effect.

lethal virus infection = assay: protection against lethal virus infection in mice; assay type: in vivo; conditions: not published
Excerpt: Following advanced experiment on carbohydrate chemistry at the Institute of Wood Chemistry at the University of Uppsala, the inventor was able to provide a water soluble, stimulatory aminated ß(1,3) glucan by treatment of natural, insoluble ß(1,3) with chloroacetaldehyde dimethyl acetal followed by reductive amination (3). The aminated ß(1,3) glucan derivative activated macrophages and thereby protected against otherwise lethal bacterial peritonitis in mice (4), as well as lethal virus infection in mice (not published).

Substance: aminated ß(1,3) glucan
- protection against otherwise lethal bacterial peritonitis [1]: protected
- protection against otherwise lethal bacterial peritonitis ([1]; listed as ß(1,3) glucan): sufficient to prevent a lethal outcome
- cases in which tumors reappeared and resumed growth (sarcoma SA-1; after 18-21 days): about one third
- tumor regression compared with Meth A results (sarcoma SA-1; sarcoma SA-1, A strain mice): essentially identical
- ability to stimulate macrophages in vitro (macrophages): stimulatory
- tumor appearance 1 hour after injection (Meth A sarcoma; 5 mg intravenously on day 7, saline tumors reddish and bulging): collapsed and whitish-grey
- histological examination of tumor site (Meth A sarcoma; glucan-treated animals): acute inflammation around the tumor
- effect on tumor in non-immunized animals or treated on day 1, 3 (Meth A sarcoma; non-immunized animals, or treatment on day 1, 3): little or no effect
- condition of the animals after 200 days (Meth A sarcoma; one injection on day 7): unaffected and vital
- tumor at day 18-21 after inoculation (Meth A sarcoma; one injection on day 7 (5 mg i.v. or i.p.)): No visible tumor; also recorded: completely replaced by scar tissue
- effect on tumor in TxB animals (Meth A sarcoma; thymectomized, x-ray irradiated and bonemarrow transplanted, day 8-14): no effect
- protection against lethal virus infection (lethal virus infection): protected
